Source: ChEMBL document CHEMBL5512617, “Tackling Influenza A virus by M2 ion channel blockers: Latest progress and limitations” (Eur J Med Chem, 2024)

Assays:
Influenza A virus [1] = experiment: Antiviral activity against influenza A virus harboring wild type M2 ion channel infected in MDCK cells assessed as viral growth inhibition preincubated with cells for 30 mins followed by viral infection and measured after 72 hrs by CCK-8 assay; assay type: functional, organism-based
Influenza A virus [2] = assay type: functional, organism-based, A/WSN/33; settings: mdck
Influenza A virus [3] = assay type: functional, organism-based; settings: A/WSN/33, MDCK, 48 h
Influenza A virus [4] = assay type: functional, organism-based, A/WSN/33; settings: mdck; remark: listed apart in the source
Influenza A virus [5] = assay type: functional, organism-based, A/WSN/33; settings: mdck; remark: listed apart in the source
Influenza A virus [6] = assay type: functional, organism-based, A/WSN/33; settings: mdck; remark: listed apart in the source
Influenza A virus [7] = assay type: functional, organism-based, A/WSN/33; settings: mdck; remark: listed apart in the source
Influenza A virus [8] = assay type: functional, organism-based; settings: A/WSN/33, MDCK, 48 h; remark: listed apart in the source
Influenza A virus [9] = assay type: functional, organism-based, A/WSN/33; settings: mdck; remark: listed apart in the source
Influenza A virus [10] = assay type: functional, organism-based, A/WSN/33 (H1N1); settings: mdck
Influenza A virus [11] = assay type: functional, organism-based; settings: A/HK/68 (H3N2), MDCK

C[C@H]1[C@H](N)C[C@@H]2C[C@H]1C2(C)C
IC50 (Influenza A virus [1]; Influenza A virus, MDCK): 0.12 µM

COc1ccc(CNC23CC4CC(CC(C4)C2)C3)c(O)c1
EC50 (Influenza A virus [2]): 1.13 µM | EC50 (Influenza A virus [3]): 8.74 µM

CC1(C)[C@@H]2CC[C@@]1(C)[C@@H](CN)C2 [listing 1 of 2 here]
IC50 (Influenza A virus [1]; Influenza A virus, MDCK): 0.29 µM

CC1(C)[C@@H]2CC[C@@]1(C)[C@@H](CN)C2 [listing 2 of 2 here]
IC50 (Influenza A virus [1]; mdck): 0.49 µM

COc1ccc(CNc2ccc(C34CC5CC(CC(C5)C3)C4)cc2)c(O)c1
EC50 (Influenza A virus [4]): 17.4 µM | EC50 (Influenza A virus [2]): 0.66 µM | EC50 (Influenza A virus [5]): 22.5 µM | EC50 (Influenza A virus [3]): 8.04 µM | EC50 (Influenza A virus [6]): 48 µM | EC50 (Influenza A virus [7]): 55 µM | EC50 (Influenza A virus [8]): 0.66 µM | EC50 (Influenza A virus [9]): 21.6 µM

Cc1cc(/C(=N\O)[C@@H]2C[C@@H]3C[C@H](C2C)C3(C)C)sc1Br (stereo not given in full)
EC50 (Influenza A virus [10]): 5.97 µM | EC50 (Influenza A virus [11]): 7.11 µM

Cc1cc(/C(=N\O)[C@@H]2C[C@@H]3C[C@H](C2C)C3(C)C)sc1Cl (stereo not given in full)
EC50 (Influenza A virus [10]): 2.45 µM | EC50 (Influenza A virus [11]): 3.29 µM

CC1[C@H]2C[C@@H](C[C@H]1/C(=N/O)c1cc(Cl)c(Cl)s1)C2(C)C (stereo not given in full)
EC50 (Influenza A virus [10]): 10.2 µM | EC50 (Influenza A virus [11]): 9.44 µM

COc1ccc(CNC23CC4C5CC6CC4C(C2)C(C6)C5C3)c(O)c1
EC50 (Influenza A virus [4]): 21.2 µM | EC50 (Influenza A virus [2]): 0.29 µM | EC50 (Influenza A virus [5]): 38.4 µM | EC50 (Influenza A virus [3]): 22 µM | EC50 (Influenza A virus [6]): 55.8 µM | EC50 (Influenza A virus [7]): 47.5 µM | EC50 (Influenza A virus [8]): 0.29 µM | EC50 (Influenza A virus [9]): 17.3 µM

CC(N)[C@H]1C[C@H]2CC[C@]1(C)C2(C)C (stereo not given in full)
IC50 (Influenza A virus [1]; Influenza A virus, MDCK): 0.1 µM

Cc1cc(/C(=N\O)[C@@H]2C[C@@H]3C[C@H](C2C)C3(C)C)sc1C (stereo not given in full)
EC50 (Influenza A virus [10]): 30.2 µM | EC50 (Influenza A virus [11]): 4.84 µM

Cc1ccc(/C(=N\O)[C@@H]2C[C@@H]3C[C@H](C2C)C3(C)C)s1 (stereo not given in full)
EC50 (Influenza A virus [10]): 11.9 µM | EC50 (Influenza A virus [11]): 29.1 µM

COc1ccc(CNC(C)(C)C23CC4CC(CC(C4)C2)C3)c(O)c1
EC50 (Influenza A virus [4]): 19.9 µM | EC50 (Influenza A virus [2]): 0.09 µM | EC50 (Influenza A virus [5]): 43.9 µM | EC50 (Influenza A virus [3]): 20.9 µM | EC50 (Influenza A virus [6]): 19.2 µM | EC50 (Influenza A virus [8]): 0.13 µM | EC50 (Influenza A virus [9]): 1.8 µM

COc1ccc(CNC23CC4C5CC6C7CC8CC6C(C5C2)C(C8)(C3)C74)c(O)c1
EC50 (Influenza A virus [2]): 8.1 µM

CC1[C@H]2C[C@@H](C[C@H]1/C(=N/O)c1cccs1)C2(C)C (stereo not given in full)
EC50 (Influenza A virus [10]): 11.8 µM | EC50 (Influenza A virus [11]): 12.4 µM

Cc1csc(/C(=N\O)[C@@H]2C[C@@H]3C[C@H](C2C)C3(C)C)c1 (stereo not given in full)
EC50 (Influenza A virus [10]): 14.8 µM | EC50 (Influenza A virus [11]): 10.8 µM

NC12CC3CC(CC(C3)C1)C2 [AMANTADINE]
IC50 (Influenza A virus [1]; Influenza A virus, MDCK): 0.5 µM
